Experimental data published in PubChem BioAssay AID2305 (GlaxoSmithKline (GSK), 2010).

These compounds were tested on P. falciparum 3D7 growth, pLDH absorbance (assay: blood-stage malaria parasite growth potency – strain 3D7, dose response (AID 2305)).

Point of comparison: `CCCCCCCn1c(=O)c(C(=O)Nc2c(C)cccc2C)c(O)c2ccccc21`, IC50 910 nM. Against it:
- CCC(ON1C(N)=NC(N)=NC1(C)C)c1ccccc1 (stereo unspecified) — 30-fold lower, 30 nM
- O=C(Cc1ccc(-c2ccccc2)cc1)N[C@H]1CCN(Cc2ccc(OCCCN3CCCCC3)cc2)C1 — within 1.5-fold, 770 nM
- CCN1CCc2c1cc(C(=O)N[C@@H](Cc1ccccc1)[C@H](O)CNC(C)(C)c1cccc(C(F)(F)F)c1)cc2N1CCCCS1(=O)=O — 8.3-fold lower, 110 nM
- COc1ccc2nccc(N(C)CC3(O)CCN(CCc4ccc5c(c4)OCCO5)CC3)c2n1 — 6.5-fold lower, 140 nM
- c1cncc(CN2CCCN(c3ccc4c(c3)CCN(Cc3ccc(-c5ncc[nH]5)cc3)CC4)CC2)c1 — within 1.5-fold, 750 nM
- CC(C)Cc1cnc2nc(N)nc(N)c2c1 — 1.9-fold lower, 490 nM
- N#Cc1ccc(N(CCOc2ccc3c(c2)CCC(=O)N3)Cc2ccccc2C(F)(F)F)cc1C(F)(F)F — within 1.5-fold, 760 nM
- COc1ccc(CNc2ccnc3cc(OC)ccc23)cc1 — within 1.5-fold, 770 nM
- COc1cc2nc(N3CCC(CNC(=O)c4ccc(-c5ccc(C(=O)N(C)C)cc5OCCN(C)C)cc4)CC3)nc(N)c2cc1OC — within 1.5-fold, 840 nM
- COCCN1CCC(N(Cc2ccc(-c3ccc(OC(F)(F)F)cc3)cc2)C(=O)Cn2c(CCc3cccc(F)c3F)cc(=O)c3ccccc32)CC1 — within 1.5-fold, 1210 nM
- CC1CN(Cc2cccc(F)c2)CCN1c1ccc(NC(=O)c2ccc(F)cc2)cc1 (stereo unspecified) — 1.6-fold lower, 580 nM
- CCCCCNc1nc(Nc2ccccc2C)nc2ccccc12 — within 1.5-fold, 740 nM
- O=c1ccc2ncc(Cl)c3c2n1CC3CN1CCC(NCc2cc3c(cn2)OCCO3)CC1 (stereo unspecified) — within 1.5-fold, 960 nM
- CO/C(=C\C=C\c1cc2cc(Cl)c(Cl)cc2[nH]1)C(=O)NCCCN(C)CCN(C)c1ccccc1 — within 1.5-fold, 830 nM
- CN1CCN(CCCN(C(=O)Nc2cc(C(F)(F)F)cc(C(F)(F)F)c2)c2ccccc2Cc2ccccc2)CC1 — within 1.5-fold, 1130 nM
- COCCSc1nc2scc(C)c2c(=O)n1Cc1cccc(OC)c1 — the same, 910 nM
- O=C(Nc1cccc(CN2CCN(C(=O)c3cccc(F)c3)CC2)c1)c1cccs1 — 2.5-fold lower, 370 nM
- CCOC(=O)c1ccc(OCCCCCCOc2ccc(Br)cc2)cc1 — within 1.5-fold, 780 nM
- O=C(Nc1ccc(OC2CCN(Cc3ccccc3)CC2)c(Cl)c1)c1ccco1 — 2.2-fold lower, 410 nM
- CCCNC(=O)c1ccc(N2CCC(c3ccccc3C)CC2)nc1 — 1.7-fold higher, 1520 nM
- O=C1CSc2ccc(CNC3CCN(CCc4c(F)cnc5ccc(F)cc45)CC3)nc2N1 — 1.8-fold lower, 520 nM
- CCn1c(-c2nonc2N)nc2c(-c3ccc(CO)o3)ncc(OCCCN)c21 — within 1.5-fold, 1360 nM
- CSc1c(CNCCCNc2cc(=O)c3ccccc3[nH]2)[nH]c2ccccc12 — within 1.5-fold, 1120 nM
- Cc1c2ccncc2c(C)c2c1[nH]c1cc(Cc3ccccc3)c(O)cc12 — 6.1-fold lower, 150 nM
- COc1ccc(Nc2nc(NCc3ccc(-n4ccnc4)cc3)cc(-c3ccc(OC)cc3)n2)cc1 — within 1.5-fold, 830 nM
- CC(CCCC(=O)Nc1ccc(CC(C)NCCc2cccc(Cl)c2)cc1)NCCc1cccc(Cl)c1 (stereo unspecified) — within 1.5-fold, 620 nM
- Fc1ccc(-c2oc(C3CCN(CCc4ccc(-c5nc(=S)o[nH]5)cc4)CC3)nc2COCC(F)(F)F)cc1 — 2.2-fold lower, 420 nM
- CN(C)c1ccc(-c2csc(C(=O)NCC3CCN(CC4CCCCC4)C3)c2)cc1 (stereo unspecified) — within 1.5-fold, 1140 nM
- CS(=O)(=O)N1CC2(CCN(CCC(NC(=S)Nc3ccccc3)c3ccc(Cl)c(Cl)c3)CC2)c2ccccc21 (stereo unspecified) — within 1.5-fold, 830 nM
- c1ccc(COc2ccc(Nc3ncnc4cnc(-c5ccc(CNc6cccnc6)o5)cc34)cc2)cc1 — within 1.5-fold, 860 nM
- CN1CCN(CC(O)CNC(=O)Nc2ccc(Br)cc2)CC1 (stereo unspecified) — 6.1-fold lower, 150 nM
- COc1ccc2c(Nc3ccc(N4CCN(C)CC4)cc3)cc(C)nc2c1 — within 1.5-fold, 720 nM
- COc1nc2c(CCN3CCC(NCc4ccc5c(n4)NC(=O)CO5)CC3)c(Cl)cnc2cc1F — 2.2-fold lower, 420 nM
- COc1cc2ncnc(Nc3ccc(OCc4ccccc4Br)c(OC)c3)c2cc1OC — 2.1-fold lower, 430 nM
- COc1ccc2ccc(F)c(CC(=O)N3CCOC(CNCc4cccc(-c5ccc(F)cc5)n4)C3)c2n1 (stereo unspecified) — within 1.5-fold, 1010 nM
- CCOC(=O)c1nc2ccc(SC3CCCCC3)cn2c1Br — within 1.5-fold, 1060 nM
- CC1(C)CCCN(Cc2c(O)ccc3c(=O)c(-c4nc5ccccc5s4)c(N)oc23)C1 — 2.7-fold lower, 340 nM
- COc1cc(Nc2ccnc3ccc(C(F)(F)F)cc23)ccc1OCCCc1ccccc1 — within 1.5-fold, 770 nM
- Cc1ccc(C(C#N)c2ccc3c(C(F)(F)F)cc(C(F)(F)F)nc3n2)cc1 (stereo unspecified) — within 1.5-fold, 700 nM
- COc1ccc(CCCN2C(=O)C(c3ccccc3)(c3ccccc3)N=C2N)cc1 — within 1.5-fold, 1050 nM
- O=C(NC1CCC(CN2CCC(c3c[nH]c4ccccc34)CC2)CC1)c1[nH]c(=O)[nH]c(=O)c1F (stereo unspecified) — within 1.5-fold, 800 nM
- Fc1ccc2nc(Nc3nc(-c4ccccn4)cs3)sc2c1 — 1.6-fold lower, 560 nM
- CCCNCc1ccc(-c2ccc(CN(CC3CCCO3)C(=O)C3CC(=O)c4ccccc43)cc2)nc1 (stereo unspecified) — within 1.5-fold, 860 nM
- CC(C)(C)c1ccc(C(=O)Nc2ccc3nc4c(c(N)c3c2)CCCC4)cc1 — 5.4-fold lower, 170 nM
- O=C(Nc1cccc(CN2CCN(Cc3ccc(O)cc3)CC2)c1)c1cc2ccccc2s1 — within 1.5-fold, 680 nM
- CC(=O)Nc1ccc(OCCCCN(Cc2ccccc2OC(F)(F)F)c2ccc(C(F)(F)F)c(C#N)c2)c(Cl)c1 — 1.7-fold lower, 530 nM
- CC(C)CCN1CCCN(Cc2cccc(NC(=O)c3ccc(-c4ccccc4)cc3)c2)CC1 — within 1.5-fold, 890 nM
- CCCNCc1ccc(-c2ccc(CN(C(=O)c3nn(-c4ccccc4)nc3C)C3CC3)cc2)nc1 — 4.3-fold lower, 210 nM
- Cc1ccc(S(=O)(=O)N2CCCN(C(=O)c3cc(-c4ccccc4)n[nH]3)CC2)cc1 — 11-fold lower, 80 nM
- CCc1ccc(CN2CCC(NC(=O)c3cc(-c4ccc(N(C)C)cc4)cs3)C2)cc1 (stereo unspecified) — 1.6-fold higher, 1440 nM
- Nc1c(C(=O)NCCCCN2CCN(c3nsc4ccccc34)CC2)sc2ccccc12 — within 1.5-fold, 1320 nM
- CN1CCCC(OC(=O)c2ccccc2)C1 (stereo unspecified) — within 1.5-fold, 760 nM
- O=C(/C=C/c1ccc(Cl)c(Cl)c1)NCCC1CCC(N2CCC(c3c[nH]c4ccccc34)CC2)CC1 (stereo unspecified) — 4.5-fold lower, 200 nM
- CCN(CCCN1CCCCC1)c1cc(C)nc(Nc2ccc(C)c(Cl)c2)n1 — 4.3-fold lower, 210 nM
- O=S(=O)(NCCN1CCCC1)c1ccc(-c2cccc(CNCc3ccsc3)c2)s1 — within 1.5-fold, 900 nM
- Cc1cn(CC(=O)Nc2cccc(-c3cccc(-c4nc5ccc(C(F)(F)F)cc5[nH]4)c3)c2)c(=O)[nH]c1=O — within 1.5-fold, 680 nM
- CCCC[C@H](NC(=O)OC(C)(C)C)C(=O)Nc1ccc(Cc2ccc(NC(=O)[C@H](CCCC)NC(=O)OC(C)(C)C)cc2)cc1 — within 1.5-fold, 730 nM
- c1ccc(C2CCC(N3CCC(N4CCCC4)CC3)CC2)cc1 (stereo unspecified) — within 1.5-fold, 670 nM
- NC(N)=Nc1ccc(CCc2ccc(N=C(N)N)cc2)cc1 — 3.1-fold lower, 290 nM
- COc1cc(Cc2cnc(N)nc2N)cc(OCCCCCCC(=O)O)c1OC — within 1.5-fold, 940 nM
- CCCCOc1cc2[nH]cc(C(=O)OCC)c(=O)c2cc1OCCCC — 4.5-fold lower, 200 nM
- Cc1cc(CN2CCC(C(=O)Nc3ccc(-c4nc5ccccc5[nH]4)cc3)CC2)oc1C — 1.6-fold higher, 1450 nM
- CC(CNC1CCN(CCn2c(=O)ccc3ccc(F)cc32)CC1)c1ccccc1 (stereo unspecified) — within 1.5-fold, 1270 nM
- CCC[C@@H](C(=O)NCCc1cccc(OC)c1)N1C(=O)c2c(ccc(OC)c2OC)C1C(=O)Nc1c(C)cccc1C (stereo partly specified) — within 1.5-fold, 810 nM
- CCCNCc1ccc(-c2ccc(CN(C(=O)c3nn(-c4ccccc4)nc3C)C(C)CN(C)C)cc2)nc1 (stereo unspecified) — within 1.5-fold, 920 nM
- CC(Cc1ccc(OCc2ccc(CCN(C)C)cc2)cc1)NCCc1cccc(Cl)c1 (stereo unspecified) — within 1.5-fold, 770 nM
- Cc1c(Cc2ccccc2)c(=O)oc2c(C)c3c(cc12)CN(CC(C)c1ccccc1)CO3 (stereo unspecified) — 2-fold lower, 450 nM
- c1ccc(-c2nnc(-c3ccccn3)nc2NC2CCCCC2)cc1 — the same, 910 nM
- CN(C)c1ccc(CN2CCC(CNC(=O)c3cc(-c4cccc(C(F)(F)F)c4)cs3)C2)cc1 (stereo unspecified) — within 1.5-fold, 880 nM
- Cc1cc(N2CCCC2)nc(Nc2ccc(NC(=O)c3ccccc3C)cc2)n1 — within 1.5-fold, 720 nM
- CC[C@H]1CN2CC[C@@H]1C[C@H]2[C@H](O)c1cc(-c2cccnc2)nc2ccc(OC)cc12 — 23-fold lower, 40 nM
- COC(=O)c1ccc(OCC(O)CO)cc1O (stereo unspecified) — within 1.5-fold, 740 nM
- CC(C)CCN1CCCN(Cc2ccc(C(=O)NCc3ccc(Cl)cc3)cc2)CC1 — within 1.5-fold, 1010 nM
- Cc1cccc2[nH]c(-c3ccc(-c4ccc(NC(=O)Nc5cccc(C#N)c5)cc4)cc3)nc12 — 8.3-fold lower, 110 nM
- O=S(=O)(Nc1ccc(CCN2CCC(N3CCCCC3)CC2)cc1)c1cccc(C(F)(F)F)c1 — within 1.5-fold, 700 nM
- Cc1onc(-c2ccccc2)c1-c1nc(NCc2ccccc2Cl)no1 — within 1.5-fold, 700 nM
- COc1ccc(-c2nonc2NC(=O)c2cccc(Cl)c2)cc1OC — within 1.5-fold, 880 nM
- CC(C)C(C(=O)Nc1ccc(S(=O)(=O)N(C)C)cc1)c1ccc(Cl)cc1 (stereo unspecified) — within 1.5-fold, 940 nM
- COc1cccc(C2(NC[C@@H](O)[C@H](Cc3ccccc3)NC(=O)c3ccccc3)CCCCC2)c1 — within 1.5-fold, 730 nM
- N#Cc1ccc2c(c1)CCN(CCC1CCC(NC(=O)/C=C/c3nc4ccccc4s3)CC1)CC2 (stereo unspecified) — within 1.5-fold, 830 nM
- Cc1noc(=O)c2ccc(NC(=O)C(O)(CSc3ccccc3)CC(C)C)cc12 (stereo unspecified) — within 1.5-fold, 720 nM
- Cc1ccc2[nH]c(-c3ccc(C(=O)NCc4ccc(Cl)c(Cl)c4)cc3)nc2c1C — within 1.5-fold, 790 nM
- COc1cc(NC(=O)c2nn(CCCN3CCC(N4CCCC4)CC3)cc2-c2ccc(Cl)c(Cl)c2)cc(OC)c1OC — 1.6-fold lower, 560 nM
- Cc1c(C2CCN(CCCCNC(=O)c3ccc(-c4ccc(C#N)cc4)cc3)CC2)c2ccccc2n1CCO — within 1.5-fold, 1000 nM
- Nc1c(-c2ccc(C(=O)NCCNCc3ccccc3)cc2)cnn1-c1ccc(C(F)(F)F)cc1 — within 1.5-fold, 1160 nM
- CCC1(C)CC(CCNCc2ccccc2O)(c2ccccc2OC)CCO1 (stereo unspecified) — within 1.5-fold, 720 nM
- COC(=O)c1cccc(CNCc2cccc(-c3cccc(-c4nc5c(C)cccc5[nH]4)c3)c2)c1 — 4.8-fold lower, 190 nM
- CC(C)NCc1ccc(-c2ccc(NC(=O)c3cccc(C#N)c3)cc2)cc1 — within 1.5-fold, 650 nM
- C=C[C@H]1CN(CCCCCCC)CC[C@H]1CCNc1ccnc2ccc(OC)cc12 — 15-fold lower, 60 nM
- Cc1cc(NN=Cc2ccccc2Cl)c2cc(F)ccc2n1 — within 1.5-fold, 750 nM
- Cc1ccc(N(CCC(=N)N)Cc2ccccc2)cc1 — within 1.5-fold, 660 nM
- COc1nc(Nc2cccc(C)c2)nc(OC)n1 — within 1.5-fold, 1010 nM
- COc1ccc(CNCc2ccccc2)cc1-c1ccc(S(=O)(=O)NCCN2CCCC2)c(C)c1 — within 1.5-fold, 860 nM
- Cc1cc(-c2c[nH]c3ncc(-c4cccc5ncccc45)cc23)ccc1C(=O)O — within 1.5-fold, 760 nM
- O=c1cc(NCCCNCc2cc3c(Cl)cccc3s2)[nH]c2ccccc12 — 1.9-fold lower, 470 nM
- CCOc1cc(-c2nnc3[nH]c(=O)n(C)c(=O)c3n2)ccc1OC(C)C — 2.3-fold lower, 400 nM
- CCCOc1ccc(-c2nonc2NC(=O)c2cccc(OC)c2)cc1OCCC — within 1.5-fold, 1150 nM
- Cc1cccc(CN2CCCN(Cc3cccc(C(=O)Nc4ccc(C(C)(C)C)cc4)c3)CC2)c1 — within 1.5-fold, 930 nM
- CCN1CCCC(Nc2ccnc3cc4ccccc4cc23)C1 (stereo unspecified) — 9.1-fold lower, 100 nM
- Cc1ccc(NC(=O)N2CCC(n3c(-c4ccccc4)nc4cccnc43)CC2)cc1F — 1.7-fold lower, 530 nM
